Experimental data published in ChEMBL document CHEMBL4665541, “Search for new therapeutic options for the uncommon pathogen Mycobacterium chimaera: an open drug discovery approach” (Lancet Microbe, 2021).

Columns and labels:
Format in all cases: functional, organism-based
Set-up in all cases: conc 20 uM
[1] = tested on: Mycobacterium intracellulare subsp. chimaera; assay: (§1) Inhibition of mycobacterial growth using the resazurin microtitre cell viability assay (REMA), compounds at final concentration of 20 µM (2% v/v DMSO). Hits were classed as compounds that inhibited bacterial growth by 70% or more compared to drug-free controls.; details: NCTC13781
[2] = tested on: Mycobacterium tuberculosis; assay: as §1; details: H37Rv
[3] = tested on: Mycobacteroides abscessus; assay: as §1; details: ATCC19977

| Substance | Survival [1] [%] | Survival [2] [%] | Survival [3] [%] |
| --- | --- | --- | --- |
| MMV676478 | 96.5 | 44.5 | 111 |
| MMV689061 | 127 | 122 | 118 |
| MMV011903 | 108 | 108 | 114 |
| MMV002816 | 102 | 86.4 | 112 |
| MMV689243 | 110 | 82.6 | 113 |
| MMV000023 | 92.8 | 84.7 | 109 |
| MMV688125 | 107 | 13.8 | 114 |
| MMV688416 | 94.7 | 99.5 | 103 |
| MMV688467 | 111 | 95.5 | 118 |
| MMV676536 | 101 | 90.9 | 119 |
| MMV687776 | 99.3 | 90.5 | 124 |
| MMV090930 | 84.6 | 38.6 | 110 |
| MMV690027 | 104 | 101 | 111 |
| MMV676526 | 74.8 | 97.3 | 103 |
| MMV019234 | 92.9 | 78.1 | 125 |
| MMV020512 | 109 | 104 | 116 |
| MMV024101 | 100 | 99.6 | 95.8 |
| MMV020670 | 93 | 99.7 | 110 |
| MMV1019989 | 107 | 105 | 99 |
| MMV676445 | 74.2 | 30 | 111 |
| MMV676554 | 41.2 | 29.4 | 109 |
| MMV001499 | 101 | 93.2 | 125 |

| Substance | Survival [1] [%] | Survival [2] [%] | Survival [3] [%] |
| --- | --- | --- | --- |
| MMV688943 | 100 | 89.7 | 112 |
| MMV658988 | 74.9 | 4.93 | 101 |
| MMV676386 | 90.1 | 24 | 107 |
| MMV676444 | 97.5 | 56.3 | 113 |
| MMV676539 | 95.1 | 29.7 | 99.7 |
| MMV687243 | 106 | 87.1 | 113 |
| MMV689437 | 106 | 104 | 99 |
| MMV026468 | 96.1 | 95.9 | 105 |
| MMV146306 | 96.2 | 96.1 | 107 |
| MMV687180 | 105 | 74.6 | 107 |
| MMV676057 | 110 | 109 | 109 |
| MMV687146 | 4.5 | 77.5 | 17.2 |
| MMV687145 | 130 | 42.6 | 108 |
| MMV676558 | 100 | 90.9 | 110 |
| MMV652003 | 97.2 | 112 | 109 |
| MMV011511 | 104 | 88 | 112 |
| MMV024311 | 106 | 74.4 | 96.6 |
| MMV676512 | 95.9 | 6.01 | 100 |
| MMV188296 | 98 | 95 | 109 |
| MMV020165 | 98.7 | 82.1 | 106 |
| MMV688763 | 99.1 | 21.8 | 122 |
| MMV675995 | 97.4 | 90.8 | 111 |

| Substance | Survival [1] [%] | Survival [2] [%] | Survival [3] [%] |
| --- | --- | --- | --- |
| MMV1037162 | 107 | 107 | 97.5 |
| MMV000011 | 10.1 | 22.4 | 118 |
| MMV020391 | 91.8 | 95.4 | 108 |
| MMV676350 | 105 | 94.9 | 116 |
| MMV045105 | 102 | 107 | 113 |
| MMV688845 | 1.95 | 6.47 | 24.1 |
| MMV019807 | 118 | 97.4 | 116 |
| MMV024035 | 98.3 | 85.9 | 117 |
| MMV688550 | 99 | 95.8 | 105 |
| MMV102872 | 97.7 | 18.3 | 114 |
| MMV688553 | 91.3 | 54 | 105 |
| MMV200748 | 100 | 103 | 108 |
| MMV020623 | 111 | 107 | 118 |
| MMV020152 | 91.2 | 78.2 | 118 |
| MMV007471 | 101 | 89.1 | 119 |
| MMV688939 | 95.4 | 48.9 | 97.6 |
| MMV676260 | 97.1 | 84.8 | 108 |
| MMV688768 | 93.9 | 87 | 109 |
| MMV002817 | 100 | 90.6 | 118 |
| MMV688775 | 1.46 | 4.71 | 15.1 |
| MMV688766 | 104 | 88.4 | 111 |
| MMV026490 | 104 | 88.9 | 115 |

| Substance | Survival [1] [%] | Survival [2] [%] | Survival [3] [%] |
| --- | --- | --- | --- |
| MMV676377 | 77.7 | 50.2 | 108 |
| MMV084603 | 81.6 | 98.8 | 112 |
| MMV688942 | 98.6 | 85.1 | 112 |
| MMV688262 | 113 | 8.6 | 106 |
| MMV032995 | 98.4 | 89.1 | 111 |
| MMV016136 | 108 | 107 | 118 |
| MMV022478 | 3.7 | 3.81 | 13.3 |
| MMV020320 | 98.9 | 42.2 | 113 |
| MMV020591 | 112 | 106 | 113 |
| MMV637229 | 96.4 | 87 | 112 |
| MMV019721 | 114 | 104 | 121 |
| MMV676468 | 96.9 | 10.5 | 103 |
| MMV687699 | 93.8 | 53.6 | 114 |
| MMV688178 | 97.1 | 103 | 107 |
| MMV667494 | 95.7 | 84.1 | 110 |
| MMV676461 | 104 | 78.3 | 114 |
| MMV688270 | 98.1 | 83 | 101 |
| MMV1029203 | 125 | 128 | 116 |
| MMV687189 | 98.5 | 58.1 | 104 |
| MMV006833 | 115 | 93.7 | 126 |
| MMV000063 | 99.8 | 90.6 | 120 |
| MMV688474 | 100 | 94 | 106 |

| Substance | Survival [1] [%] | Survival [2] [%] | Survival [3] [%] |
| --- | --- | --- | --- |
| MMV024406 | 100 | 89 | 114 |
| MMV688279 | 114 | 32.5 | 110 |
| MMV688555 | 92.5 | 46.8 | 108 |
| MMV202458 | 98.1 | 132 | 99.9 |
| MMV688407 | 106 | 94 | 116 |
| MMV688844 | 4.25 | 15.4 | 11.7 |
| MMV689060 | 109 | 104 | 119 |
| MMV595321 | 98.2 | 25.4 | 117 |
| MMV688958 | 97.7 | 91.1 | 109 |
| MMV012074 | 88.4 | 53.4 | 110 |
| MMV676389 | 98.7 | 51.7 | 113 |
| MMV688991 | 90.1 | 82.1 | 98.3 |
| MMV688327 | -1.9 | 7.39 | 18.6 |
| MMV676395 | -0.21 | 2.49 | 111 |
| MMV688852 | 103 | 107 | 115 |
| MMV020136 | 88.5 | 88.7 | 129 |
| MMV688547 | 102 | 95.2 | 116 |
| MMV634140 | 84 | 81 | 110 |
| MMV023388 | 98 | 99.3 | 90.4 |
| MMV020289 | 103 | 86.3 | 113 |
| MMV393144 | 85.6 | 92.6 | 103 |
